According to US7030119B1, “Method for treating chronic pain using MEK inhibitors” (Warner-Lambert Company, priority 1999, dated 2006):
“Also recorded” adds a separate entry of the source. Counter-ions that a name gives are not always drawn. Like-named read-outs stand apart in the source and are kept apart here.

Columns and labels:
[1] = test system: streptozocin-induced static allodynia; assay: streptozocin-induced static allodynia (von Frey hairs) in diabetic rats; type: in vivo, rat
Procedure: Male Sprague Dawley rats (250–300 g), obtained from Bantin and Kingman, (Hull, U.K.) were housed in groups of 3. All animals were kept under a 12 h light/dark cycle (lights on at 07 h 00 min) with food and water ad libitum. All experiments were carried out by an observer blind to drug treatments.
Diabetes was induced in rats by a single i.p. injection of streptozocin (50 mg/kg) as described previously (Courteix et al., 1993).
(§1) Mechanical hypersensitivity was measured using Semmes-Weinstein von Frey hairs (Stoelting, Ill., U.S.A.). Animals were placed into wire mesh bottom cages allowing access to the underside of their paws. Animals were habituated to this environment prior to the start of the experiment. Mechanical hypersensitivity was tested by touching the plantar surface of the animals right hind paw with von Frey hairs in ascending order of force (0.7, 1.2, 1.5, 2, 3.6, 5.5, 8.5, 11.8, 15.1 and 29 g) for up to 6 sec. Once a withdrawal response was established, the paw was re-tested, starting with the next descending von Frey hair until no response occurred. The highest force of 29 g lifted the paw as well as eliciting a response, thus represented the cut off point. The lowest amount of force required to elicit a response was recorded as the paw withdrawal threshold (PWT) in grams.
PD 198306 [N-Cyclopropylmethoxy-3,4,5-trifluoro-2-(4-iodo-2-methyl-phenylamino)-benzamide] and Cl-1008 (pregabalin) were synthesized at Parke-Davis (Ann Arbor, Mich., USA). PD 198306 was suspended in cremophor:ethanol:water (1:1:8) vehicle. Pregabalin was dissolved in water. Both compounds were administered orally. Streptozocin (Aldrich, UK) was dissolved in 0.9% w/v NaCl and administered intraperitoneally. Drug administrations were made in a volume of 1 ml/kg.
The static allodynia data were analysed using a Kruskall-Wallis ANOVA for non-parametric results, followed when significant by Mann-Whitney's t test.
Static allodynia was assessed with von Frey hairs, before (baseline, BL) and 1 h after oral administration of PD 198306 (30 mg/kg, p.o.), vehicle (cremophor:ethanol:water, 1:1:8) or pregabalin (30 mg/kg, p.o.) (test). Animals were administered again the same compounds on the following day, both in the morning and the afternoon. Static allodynia was assessed only before and 1 h after the afternoon administration, in order to minimise the habituation of the animals to the testing conditions. Animals treated with pregabalin received water in the morning administration, in order to avoid the potential development of tolerance to the compound with repeated administration.
(§2) Male Sprague Dawley rats (250–300 g), obtained from Charles River, Margate, U.K.) were housed in groups of 3–6. All animals were kept under a 12 h light/dark cycle (lights on at 07 h 00 min) with food and water ad libitum. All experiments were carried out by an observer blind to drug treatments.
(§3) PD 198306 and pregabalin were administered intrathecally in a volume of 10 μl using a 100 μl Hamilton syringe by exposing the spine of the rats under brief isoflurane anaesthesia. Injections were made into the intrathecal space between lumbar region 5–6 with a 10 mm long 27 gauge needle. Penetrations were judged successful if there was a tail flick response. The wound was sealed with an autoclip and rats appeared fully awake within 2–3 min following injection.
Static allodynia was assessed with von Frey hairs, before (baseline, BL) and 0.5 h, 1 h and 2 h after intrathecal or intraplantar administration of PD 198306 (1–30 μg, i.t.), vehicle (cremophor:ethanol:water, 1:1:8) or pregabalin (10 μg, i.t.). For oral administration experiments, static allodynia was assessed with von Frey hairs, before (baseline, BL) and 1 h after oral administration of PD 198306 (3–30 mg/kg, p.o.), vehicle (cremophor:ethanol:water, 1:1:8) or pregabalin (30 mg/kg, p.o.). Animals were administered again the same compounds on the following day, both in the morning and the afternoon. […]

[2] = test system: CCI-induced static allodynia; assay: chronic constriction injury (CCI)-induced static allodynia (von Frey hairs) in rats; type: in vivo, rat
Procedure: as §2
Animals were anaesthetised with 2% isoflurane 1:4 O2/N2O mixture maintained during surgery via a nose cone. The sciatic nerve was ligated as previously described by Bennett and Xie, 1988. Animals were placed on a homeothermic blanket for the duration of the procedure. After surgical preparation the common sciatic nerve was exposed at the middle of the thigh by blunt dissection through biceps femoris. Proximal to the sciatic trifurcation, about 7 mm of nerve was freed of adhering tissue and 4 ligatures (4-0 silk) were tied loosely around it with about 1 mm spacing. The incision was closed in layers and the wound treated with topical antibiotics.
as §3, §1
Static allodynia was assessed with von Frey hairs, before (baseline, BL) and 0.5 h, 1 h and 2 h after intrathecal or intraplantar administration of PD 198306 (1–30 μg, i.t.), vehicle (cremophor:ethanol:water, 1:1:8) or pregabalin (10 μg, i.t.). For oral administration experiments, static allodynia was assessed with von Frey hairs, before (baseline, BL) and 1 h after oral administration of PD 198306 (3–30 mg/kg, p.o.), vehicle (cremophor:ethanol:water, 1:1:8) or pregabalin (30 mg/kg, p.o.). Animals were administered again the same compounds on the following day, both in the morning and the afternoon. Static allodynia was assessed before and 1 h after the morning administration. In the afternoon static allodynia was assessed before, 1 h, 2 h and 3 h after administration for streptozocin treated animals. CCI animals were assessed before, 1 h and 2 h after administration
PD 198306 and pregabalin were synthesised at Parke-Davis (Ann Arbor, Mich., USA). PD 198306 was suspended in cremophor:ethanol:water (1:1:8) vehicle. Pregabalin was dissolved in water. Both compounds were administered orally, intrathecally or intraplantar in volumes of 1 ml/kg, 10 μl and 100 μl respectively. Streptozocin (Aldrich, UK) was dissolved in 0.9% w/v NaCl and administered intraperitoneally in a volume of 1 ml/kg.
Data were analysed using a Kruskall-Wallis ANOVA for non-parametric results, followed when significant by Mann-Whitney's t test vs vehicle group.
The animals and methods for developing chronic constriction injury in the rat, injecting test compounds, and evaluation of static allodynia were according to Example 2 above. […]

[3] = test system: colon 26 cells; assay: colon 26 cells IC50; type: cell-based; details: Mus musculus
[4] = test system: MEK; assay: binding affinity of MEK inhibitors; details: affinity of the MEK inhibitors of Biological Example 3
[5] = test system: CCI-induced static allodynia; assay: chronic constriction injury (CCI)-induced static allodynia (von Frey hairs) in rats; type: in vivo, rat; details: Biological Example 3; intrathecal administration 30 μg
[6] = Biological Example 1, single administration 30 mg/kg p.o., 1 h after administration
[7] = Biological Example 2, single administration p.o. (pregabalin 30 mg/kg, PD 198306 3–30 mg/kg), 1 h after administration
[8] = intraplantar administration 3 mg/100 μl
[9] = intrathecal administration 1–30 μg
[10] = Biological Example 3, intrathecal administration 30 μg

For `Cc1cc(I)ccc1Nc1c(C(=O)NOCC2CC2)cc(F)c(F)c1F` [PD 198306, N-Cyclopropylmethoxy-3,4,5-trifluoro-2-(4-iodo-2-methyl-phenylamino)-benzamide], the “effect on streptozocin-induced static allodynia” value ([1]; Biological Example 1, 30 mg/kg p.o., 1 h after the third administration (twice more on the following day)) was “significantly blocked”, the “persistence of the effect on streptozocin-induced static allodynia” value ([1]; Biological Example 1, 30 mg/kg p.o., day after the third administration) was “disappeared by the following day” and the “effect on streptozocin-induced static allodynia” value [1, 6] was “had no effect”. For the same molecule, the “effect on streptozocin-induced static allodynia” value ([1]; Biological Example 2, PD 198306 30 mg/kg p.o., after the third administration (3 doses over two days), 30 mg/kg) was “significantly blocked; also recorded: transient effect”, the “effect on streptozocin-induced static allodynia” value [1, 7] was “had no effect” and the “effect on static allodynia, streptozocin model” value [1, 8] was “had no effect”. For the same molecule, the “minimum effective dose (MED), static allodynia, streptozocin model” value ([1]; intrathecal administration) was 3 µg, the “effect on static allodynia, streptozocin model” value ([1]; intrathecal administration 30 μg) was “significantly blocked; also recorded: totally blocked” and the “effect on static allodynia, streptozocin model” value [1, 9] was “dose-dependently blocked”. The “effect on static allodynia, CCI model” value ([2]; Biological Example 2, intrathecal administration 30 μg) was “significantly blocked; also recorded: totally blocked”, the “effect on static allodynia, CCI model” value [2, 8] was “had no effect” and the “minimum effective dose (MED), static allodynia, CCI model” value ([2]; intrathecal administration) was 10 µg. The “effect on static allodynia, CCI model” value [2, 9] was “dose-dependently blocked” and the “effect on CCI-induced static allodynia” value ([2]; single or multiple administration 3–30 mg/kg p.o.) was “neither a single or multiple administration of PD 198306 (3–30 mg/kg, p.o) had any effect; also recorded: had no effect”.
In the case of `CC(C)C[C@H](CN)CC(=O)O` [pregabalin], the “effect on streptozocin-induced static allodynia” value [1, 6] is reported as “significantly blocked”, the “effect on streptozocin-induced static allodynia” value [1, 7] is reported as “significantly blocked” and the “effect on CCI-induced static allodynia” value ([2]; single administration 30 mg/kg p.o., 1 h after administration) is reported as “significantly blocked”.
In the case of `Cc1cc(I)ccc1Nc1c(C(=O)NOCC2CC2)cc2nc[nH]c2c1F` (as salt: salt) [PD 254552, 7-fluoro-6-(4-iodo-2-methyl-phenylamino)-1H-benzoimidazole-5-carboxylic acid cyclopropylmethoxy-amide], the melting point is reported as 168 to 172 °C.
With `Cc1cc(I)ccc1Nc1c(C(=O)O)cc2nc[nH]c2c1F` [PD 205293, 7-fluoro-6-(4-iodo-2-methyl-phenylamino)-1H-benzoimidazole-5-carboxylic acid] the IC50 ([3]; read-out: colon 26 cells, IC50) was greater than 10 µM and the melting point was 247 to 248 °C (dec.).
For `Cc1cc(I)ccc1Nc1c(C(=O)NOCC2CC2)cc2nc[nH]c2c1F` [PD 254552, 7-fluoro-6-(4-iodo-2-methyl-phenylamino)-1H-benzoimidazole-5-carboxylic acid cyclopropylmethoxy-amide], the IC50 ([3]; read-out: colon 26 cells, 1 hour pretreatment, IC50) was 0.02 µM, the “effect on static allodynia, CCI model” value [2, 10] was “blocked the maintenance of static allodynia” and the “time for which the antiallodynic effect was evident post-injection, CCI model” value [2, 10] was 30 min. It also gave an affinity [4] of 5 nM.
In the case of `O=C(NOCC1CC1)c1ccc(F)c(F)c1Nc1ccc(I)cc1Cl` [PD 184352], the “effect on static allodynia, CCI model” value [2, 10] is reported as “blocked the maintenance of static allodynia”, the “time for which the antiallodynic effect was evident post-injection, CCI model” value [2, 10] is reported as 30 min and the affinity [4] is reported as 2 nM. The “magnitude of the antiallodynic effect compared with 100 μg of pregabalin, CCI model” value [5] was “similar”.
